In patent US4442044A, “Process for preparing monoesters and diesters of N-alkyl substituted amino methyl phosphonic acid” (priority 1983, dated 1984):

Columns and labels:
Experiment in all cases: post-emergent herbicidal activity, greenhouse
Assay type in all cases: in vivo
[1] = tested on: Wheat; details: Table II, 4 WAT
Method in brief: (§1)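 Seeds or propagules sown in compacted top soil, grown 2–3 weeks in greenhouse, then sprayed with compound solution/suspension containing ~0.4% emulsifier at tabulated rates. Injury scored visually versus untreated controls at ~2 and 4 weeks after treatment, expressed as a herbicidal activity index.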

[2] = tested on: Morningglory; details: 4 WAT
Method in brief: as §1

[3] = tested on: Sorghum; details: Table II, 4 WAT
Method in brief: as §1

[4] = tested on: Downy Brome; details: 4 WAT
Method in brief: as §1

[5] = tested on: Quackgrass; details: Table I, 4 WAT
Method in brief: as §1

[6] = tested on: Lambsquarters; details: 4 WAT
Method in brief: as §1

[7] = tested on: Canada Thistle; details: Table I, 4 WAT
Method in brief: as §1

[8] = tested on: Crabgrass; details: Table II, 4 WAT
Method in brief: as §1

[9] = tested on: Wild Buckwheat; details: Table II, 4 WAT
Method in brief: as §1

[10] = tested on: Panicum Spp; details: Table II, 4 WAT
Method in brief: as §1

[11] = tested on: Velvetleaf; details: 4 WAT
Method in brief: as §1

[12] = tested on: Yellow Nutsedge; details: Table I, 4 WAT
Method in brief: as §1

[13] = tested on: Barnyardgrass; details: 4 WAT
Method in brief: as §1

[14] = tested on: Rice; details: Table II, 4 WAT
Method in brief: as §1

[15] = tested on: Hemp Sesbania; details: Table II, 4 WAT
Method in brief: as §1

[16] = tested on: Soybean; details: Table II, 4 WAT
Method in brief: as §1

[17] = tested on: Johnsongrass; details: Table I, 4 WAT
Method in brief: as §1

[18] = tested on: Smartweed; details: 4 WAT
Method in brief: as §1

[19] = tested on: Cocklebur; details: 4 WAT
Method in brief: as §1

[20] = tested on: Sugar Beet; details: Table II, 4 WAT
Method in brief: as §1

Structure (SMILES): CCOC(=O)CNCP(=O)(OC(C)C#N)OC(C)C#N (centres unmarked) [Example 1, glycine, N-[[bis(1-cyanoethoxy)phosphinyl]methyl], ethyl ester]
- post-emergent herbicidal activity index ([1]; 0.28 kg/h): 1 (25-49% control)
- post-emergent herbicidal activity index ([1]; 1.12 kg/h): 2 (50-74% control)
- post-emergent herbicidal activity index ([1]; 5.6 kg/h): 4 (100% control)
- post-emergent herbicidal activity index ([2]; Table I, 5.6 kg/h): 3 (75-99% control)
- post-emergent herbicidal activity index ([2]; Table I, 11.2 kg/h): 3 (75-99% control)
- post-emergent herbicidal activity index ([2]; Table II, 0.28 kg/h): 1 (25-49% control)
- post-emergent herbicidal activity index ([2]; Table II, 1.12 kg/h): 2 (50-74% control)
- post-emergent herbicidal activity index ([2]; Table II, 5.6 kg/h): 3 (75-99% control)
- post-emergent herbicidal activity index ([3]; 0.28 kg/h): 1 (25-49% control)
- post-emergent herbicidal activity index ([3]; 1.12 kg/h): 3 (75-99% control)
- post-emergent herbicidal activity index ([3]; 5.6 kg/h): 4 (100% control)
- post-emergent herbicidal activity index ([4]; Table I, 5.6 kg/h): 3 (75-99% control)
- post-emergent herbicidal activity index ([4]; Table I, 11.2 kg/h): 2 (50-74% control)
- post-emergent herbicidal activity index ([4]; Table II, 0.28 kg/h): 0 (0-24% control)
- post-emergent herbicidal activity index ([4]; Table II, 1.12 kg/h): 2 (50-74% control)
- post-emergent herbicidal activity index ([4]; Table II, 5.6 kg/h): 4 (100% control)
- post-emergent herbicidal activity index ([5]; 5.6 kg/h): 3 (75-99% control)
- post-emergent herbicidal activity index ([5]; 11.2 kg/h): 2 (50-74% control)
- post-emergent herbicidal activity index ([6]; Table I, 5.6 kg/h): 3 (75-99% control)
- post-emergent herbicidal activity index ([6]; Table I, 11.2 kg/h): 1 (25-49% control)
- post-emergent herbicidal activity index ([6]; Table II, 0.28 kg/h): 0 (0-24% control)
- post-emergent herbicidal activity index ([6]; Table II, 1.12 kg/h): 3 (75-99% control)
- post-emergent herbicidal activity index ([6]; Table II, 5.6 kg/h): 3 (75-99% control)
- post-emergent herbicidal activity index ([7]; 5.6 kg/h): 4 (100% control)
- post-emergent herbicidal activity index ([7]; 11.2 kg/h): 3 (75-99% control)
- post-emergent herbicidal activity index ([8]; 0.28 kg/h): 1 (25-49% control)
- post-emergent herbicidal activity index ([8]; 1.12 kg/h): 3 (75-99% control)
- post-emergent herbicidal activity index ([8]; 5.6 kg/h): 4 (100% control)
- post-emergent herbicidal activity index ([9]; 0.28 kg/h): 0 (0-24% control)
- post-emergent herbicidal activity index ([9]; 1.12 kg/h): 2 (50-74% control)
- post-emergent herbicidal activity index ([9]; 5.6 kg/h): 4 (100% control)
- post-emergent herbicidal activity index ([10]; 0.28 kg/h): 2 (50-74% control)
- post-emergent herbicidal activity index ([10]; 1.12 kg/h): 4 (100% control)
- post-emergent herbicidal activity index ([10]; 5.6 kg/h): 4 (100% control)
- post-emergent herbicidal activity index ([11]; Table I, 5.6 kg/h): 4 (100% control)
- post-emergent herbicidal activity index ([11]; Table I, 11.2 kg/h): 3 (75-99% control)
- post-emergent herbicidal activity index ([11]; Table II, 0.28 kg/h): 0 (0-24% control)
- post-emergent herbicidal activity index ([11]; Table II, 1.12 kg/h): 2 (50-74% control)
- post-emergent herbicidal activity index ([11]; Table II, 5.6 kg/h): 4 (100% control)
- post-emergent herbicidal activity index ([12]; 5.6 kg/h): 2 (50-74% control)
- post-emergent herbicidal activity index ([12]; 11.2 kg/h): 3 (75-99% control)
- post-emergent herbicidal activity index ([13]; Table I, 5.6 kg/h): 4 (100% control)
- post-emergent herbicidal activity index ([13]; Table I, 11.2 kg/h): 4 (100% control)
- post-emergent herbicidal activity index ([13]; Table II, 0.28 kg/h): 2 (50-74% control)
- post-emergent herbicidal activity index ([13]; Table II, 1.12 kg/h): 3 (75-99% control)
- post-emergent herbicidal activity index ([13]; Table II, 5.6 kg/h): 4 (100% control)
- post-emergent herbicidal activity index ([14]; 0.28 kg/h): 0 (0-24% control)
- post-emergent herbicidal activity index ([14]; 1.12 kg/h): 1 (25-49% control)
- post-emergent herbicidal activity index ([14]; 5.6 kg/h): 4 (100% control)
- post-emergent herbicidal activity index ([15]; 0.28 kg/h): 0 (0-24% control)
- post-emergent herbicidal activity index ([15]; 1.12 kg/h): 5
- post-emergent herbicidal activity index ([15]; 5.6 kg/h): 2 (50-74% control)
- post-emergent herbicidal activity index ([16]; 0.28 kg/h): 0 (0-24% control)
- post-emergent herbicidal activity index ([16]; 1.12 kg/h): 2 (50-74% control)
- post-emergent herbicidal activity index ([16]; 5.6 kg/h): 4 (100% control)
- post-emergent herbicidal activity index ([17]; 5.6 kg/h): 3 (75-99% control)
- post-emergent herbicidal activity index ([17]; 11.2 kg/h): 4 (100% control)
- post-emergent herbicidal activity index ([18]; Table I, 5.6 kg/h): 3 (75-99% control)
- post-emergent herbicidal activity index ([18]; Table I, 11.2 kg/h): 4 (100% control)
- post-emergent herbicidal activity index ([18]; Table II, 0.28 kg/h): 0 (0-24% control)
- post-emergent herbicidal activity index ([18]; Table II, 1.12 kg/h): 3 (75-99% control)
- post-emergent herbicidal activity index ([18]; Table II, 5.6 kg/h): 4 (100% control)
- post-emergent herbicidal activity index ([19]; Table I, 5.6 kg/h): 3 (75-99% control)
- post-emergent herbicidal activity index ([19]; Table I, 11.2 kg/h): 3 (75-99% control)
- post-emergent herbicidal activity index ([19]; Table II, 0.28 kg/h): 1 (25-49% control)
- post-emergent herbicidal activity index ([19]; Table II, 1.12 kg/h): 2 (50-74% control)
- post-emergent herbicidal activity index ([19]; Table II, 5.6 kg/h): 3 (75-99% control)
- post-emergent herbicidal activity index ([20]; 0.28 kg/h): 2 (50-74% control)
- post-emergent herbicidal activity index ([20]; 1.12 kg/h): 4 (100% control)
- post-emergent herbicidal activity index ([20]; 5.6 kg/h): 4 (100% control)

Structure (SMILES): CCOC(=O)CNCP(=O)(O)OCC(Cl)(Cl)Cl [Example 26, glycine, N-[[(2,2,2-trichloroethoxy)hydroxyphosphinyl]methyl]-ethyl ester]
- post-emergent herbicidal activity index ([2]; Table I, 11.2 kg/h): 0 (0-24% control)
- post-emergent herbicidal activity index ([2]; Table I, 56.0 kg/h): 1 (25-49% control)
- post-emergent herbicidal activity index ([4]; Table I, 11.2 kg/h): 0 (0-24% control)
- post-emergent herbicidal activity index ([4]; Table I, 56.0 kg/h): 0 (0-24% control)
- post-emergent herbicidal activity index ([5]; 11.2 kg/h): 0 (0-24% control)
- post-emergent herbicidal activity index ([5]; 56.0 kg/h): 0 (0-24% control)
- post-emergent herbicidal activity index ([6]; Table I, 11.2 kg/h): 1 (25-49% control)
- post-emergent herbicidal activity index ([6]; Table I, 56.0 kg/h): 1 (25-49% control)
- post-emergent herbicidal activity index ([7]; 11.2 kg/h): 0 (0-24% control)
- post-emergent herbicidal activity index ([7]; 56.0 kg/h): 0 (0-24% control)
- post-emergent herbicidal activity index ([11]; Table I, 11.2 kg/h): 0 (0-24% control)
- post-emergent herbicidal activity index ([11]; Table I, 56.0 kg/h): 0 (0-24% control)
- post-emergent herbicidal activity index ([12]; 11.2 kg/h): 0 (0-24% control)
- post-emergent herbicidal activity index ([12]; 56.0 kg/h): 1 (25-49% control)
- post-emergent herbicidal activity index ([13]; Table I, 11.2 kg/h): 1 (25-49% control)
- post-emergent herbicidal activity index ([13]; Table I, 56.0 kg/h): 1 (25-49% control)
- post-emergent herbicidal activity index ([17]; 11.2 kg/h): 0 (0-24% control)
- post-emergent herbicidal activity index ([17]; 56.0 kg/h): 0 (0-24% control)
- post-emergent herbicidal activity index ([18]; Table I, 11.2 kg/h): 0 (0-24% control)
- post-emergent herbicidal activity index ([18]; Table I, 56.0 kg/h): 1 (25-49% control)
- post-emergent herbicidal activity index ([19]; Table I, 11.2 kg/h): 1 (25-49% control)
- post-emergent herbicidal activity index ([19]; Table I, 56.0 kg/h): 1 (25-49% control)
